IC50 data for 7 compounds are collected here from patent US11464770B2, “Anticancer pharmaceutical composition” (NATIONAL CANCER CENTER, priority 2016, dated 2022).

The subject of this assay is colorectal cancer cell lines (e.g. DLD-1, HCT 116, SW620, HCT-15, HCT-8, RKO). The assay can be described thus: Cell based assay, cell viability (CellTiter-Glo), colorectal cancer cell lines. The gist of the method: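 Luminescent ATP assay quantified surviving cells after three days of treatment. Compound was applied at final concentrations of 0 to 2 μM, starting 24 h after cells were seeded.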

Where [1] appears, read: Homo sapiens, DLD-1, 72 hours treatment, read-out: IC50, colorectal cancer cell line DLD-1.
Setting [2] is: Homo sapiens, HCT 116, 72 hours treatment, read-out: IC50, colorectal cancer cell line HCT 116.
Where [3] appears, read: Homo sapiens, HCT-8, 72 hours treatment, read-out: IC50, colorectal cancer cell line HCT-8.
The mark [4] stands for this setting: Homo sapiens, HCT-15, 72 hours treatment, read-out: IC50, colorectal cancer cell line HCT-15.
[5] abbreviates: Homo sapiens, HT-29, 72 hours treatment, read-out: IC50, colorectal cancer cell line HT-29.
[6] abbreviates: Homo sapiens, LoVo, 72 hours treatment, read-out: IC50, colorectal cancer cell line LoVo.
The mark [7] stands for this setting: Homo sapiens, SW480, 72 hours treatment, read-out: IC50, colorectal cancer cell line SW480.
The mark [8] stands for this setting: Homo sapiens, SW-620, SW620, 72 hours treatment, read-out: IC50, colorectal cancer cell line SW620.
Where [9] appears, read: RKO, 72 hours treatment, read-out: IC50, colorectal cancer cell line RKO.
Setting [10] is: Homo sapiens, DLD-1 cells, 72 hours treatment, read-out: IC50, colorectal cancer cell line DLD-1.
Setting [11] is: Homo sapiens, HCT 116 cells, 72 hours treatment, read-out: IC50, colorectal cancer cell line HCT 116.
Setting [12] is: Homo sapiens, HCT-8 cells, 72 hours treatment, read-out: IC50, colorectal cancer cell line HCT-8.
[13] abbreviates: Homo sapiens, HCT-15 cells, 72 hours treatment, read-out: IC50, colorectal cancer cell line HCT-15.
Where [14] appears, read: Homo sapiens, HT-29 cells, 72 hours treatment, read-out: IC50, colorectal cancer cell line HT-29.
[15] abbreviates: Homo sapiens, LoVo cells, 72 hours treatment, read-out: IC50, colorectal cancer cell line LoVo.
Setting [16] is: Homo sapiens, RKO cells, 72 hours treatment, read-out: IC50, colorectal cancer cell line RKO.
The mark [17] stands for this setting: Homo sapiens, SW480 cells, 72 hours treatment, read-out: IC50, colorectal cancer cell line SW480.
Where [18] appears, read: Homo sapiens, SW-620, SW620 cells, 72 hours treatment, read-out: IC50, colorectal cancer cell line SW620.

Like-named read-outs stand apart in the source and are kept apart here. A value given as a limit tells only on which side of the number the result lay.

For orientation: IC50 means the midpoint of a concentration-inhibition curve. `CC(=O)c1c([S+]([O-])Cc2ccc(S(F)(F)(F)(F)F)cc2)[nH]c2c(F)ccc(F)c2c1=O` (stereo not drawn) [Compound 80, 3-acetyl-5,8-difluoro-2-((4-(pentafluoro--sulfanyl)benzyl)sulfinyl)quinolin-4(1H)-one]: the IC50 is, setting by setting: under setting [1], more than 2000 nM; under setting [2], more than 2000 nM; under setting [3], more than 2000 nM; under setting [4], more than 2000 nM; under setting [5], more than 10000 nM; under setting [6], more than 2000 nM. The IC50 under setting [7] is more than 2000 nM, the IC50 under setting [8] is more than 2000 nM and the half-inhibitory concentration (IC50) under setting [9] was more than 2000 nM.

For the compound `CC(=O)c1c([S+]([O-])Cc2ccc(C(F)(F)F)o2)[nH]c2c(F)ccc(F)c2c1=O` (stereo not drawn) [Compound 81, 3-acetyl-5,8-difluoro-2-(((5-(trifluoromethyl)furan-2-yl)methyl)sulfinyl)quinolin-4(1H)-one], the half-maximal inhibitory concentration (IC50) is more than 2000 nM under setting [1]; more than 2000 nM under setting [2]; more than 2000 nM under setting [3]; more than 2000 nM under setting [4]; more than 10000 nM under setting [5]; more than 2000 nM under setting [6]. In addition, the IC50 by setting is: under setting [7], more than 2000 nM; under setting [8], more than 2000 nM; under setting [9], more than 2000 nM.

Consider `CC(=O)c1c([S+]([O-])Cc2cc(C)on2)[nH]c2c(F)ccc(F)c2c1=O` (stereo not drawn) [Compound 82, 3-acetyl-5,8-difluoro-2-(((5-methylisoxazol-3-yl)methyl)sulfinyl)quinolin-4(1H)-one], for which the 50% inhibitory concentration (IC50) by setting is: under setting [10], more than 2000 nM; under setting [11], more than 2000 nM; under setting [12], more than 2000 nM; under setting [13], more than 2000 nM; under setting [14], more than 10000 nM; under setting [15], more than 2000 nM. Also, the half-inhibitory concentration (IC50) by setting is: under setting [16], more than 2000 nM; under setting [17], more than 2000 nM; under setting [18], more than 2000 nM.

In the case of `CC(C)C(=O)c1c([S+]([O-])Cc2ccc(SC(F)(F)F)cc2)[nH]c2c(F)ccc(F)c2c1=O` (stereo not drawn) [Compound 85, 5,8-difluoro-3-isobutyryl-2-((4-((trifluoromethyl)thio)benzyl)sulfinyl)quinolin-4(1H)-one], the IC50 under setting [10] was more than 2000 nM; the IC50 under setting [11] is more than 2000 nM; the IC50 under setting [12] was more than 2000 nM; the concentration for half-maximal inhibition (IC50) under setting [13] was more than 2000 nM; the IC50 under setting [14] was more than 10000 nM; the half-maximal inhibitory concentration (IC50) under setting [15] was more than 2000 nM. Further, the half-inhibitory concentration (IC50) is more than 2000 nM under setting [16], more than 2000 nM under setting [17] and more than 2000 nM under setting [18].

`O=C(c1ccccc1)c1c([S+]([O-])Cc2ccc(S(F)(F)(F)(F)F)cc2)[nH]c2c(F)ccc(F)c2c1=O` (stereo not drawn) [Compound 87, 3-benzoyl-5,8-difluoro-2-((4-(pentafluoro--sulfanyl)benzyl)sulfinyl)quinolin-4(1H)-one]: the IC50 is more than 2000 nM under setting [10]; more than 2000 nM under setting [11]; more than 2000 nM under setting [12]; more than 2000 nM under setting [13]; more than 10000 nM under setting [14]; more than 2000 nM under setting [15]. Also, the IC50 was more than 2000 nM under setting [16], more than 2000 nM under setting [17] and more than 2000 nM under setting [18].

As to `Cc1cc(C[S+]([O-])c2[nH]c3c(Cl)ccc(Cl)c3c(=O)c2C(=O)c2ccccc2)no1` (stereo not drawn) [Compound 88, 3-benzoyl-5,8-dichloro-2-(((5-methylisoxazol-3-yl)methyl)sulfinyl)quinolin-4(1H)-one], the half-maximal inhibitory concentration (IC50) runs as follows: under setting [10], more than 2000 nM; under setting [11], more than 2000 nM; under setting [12], more than 2000 nM; under setting [13], more than 2000 nM; under setting [14], more than 10000 nM; under setting [15], more than 2000 nM. The IC50 reads like this: under setting [16], more than 2000 nM; under setting [17], more than 2000 nM; under setting [18], more than 2000 nM.

On to `CC(=O)c1c([S+]([O-])CN2C(=O)c3ccccc3C2=O)[nH]c2c(Cl)ccc(Cl)c2c1=O` (stereo not drawn) [Compound 90, 2-(((3-acetyl-5,8-dichloro-4-oxo-1,4-dihydroquinolin-2-yl)sulfinyl)methyl)isoindoline-1,3-dione], for which the half-inhibitory concentration (IC50) is more than 2000 nM under setting [10]; more than 2000 nM under setting [11]; more than 2000 nM under setting [12]; more than 2000 nM under setting [13]; more than 10000 nM under setting [14]; more than 2000 nM under setting [15]. Further, the half-inhibitory concentration (IC50) under setting [16] is more than 2000 nM, the 50% inhibitory concentration (IC50) under setting [17] is more than 2000 nM and the IC50 under setting [18] was more than 2000 nM.
